Test results published in patent publication EP4786486A1, “PEPTIDES FOR TREATING CARDIAC DISEASES” (Universidad Complutense De Madrid, priority 2023, dated 2025).
Where a SMILES comes first, the peptide text is derived from it. The star is where a group is joined. FITC = O=C1OC2(c3ccc(O)cc3Oc3cc(O)ccc32)c2ccc(NC(=S)*)cc21; Palmitoyl = CCCCCCCCCCCCCCCC(=O)*

Legend:
[1] = tested on: human cardiac Nav1.5 channels; assay: INa by whole-cell patch-clamp in CHO cells incubated with synthetic peptide; assay type: cell-based; conditions: CHO cells expressing Nav1.5, incubated 24 hours, 10 µM, vs untreated control cells
Protocol: (§1) To analyse the effect of the peptides designed in example 1 on INa and IK1, the cDNA that encodes SEQ ID NO: 3 or SEQ ID NO: 4, described in SEQ ID NO: 5 and 20, respectively, was cloned into a pcDNA3.1^(+)® vector (Invitrogen) for transfection of Chinese hamster ovary (CHO) cells that were in turn transfected with the cDNA that encodes the human Nav1.5 channels (SEQ ID NO: 21). The CHO cells were further co-transfected with the EBO-pcD leu 2 vector (0.5 µg), which encodes the expression of the CD8 surface antigen. The subsequent addition of anti-CD8 antibody, bonded to Dynabeads M450® microspheres, allowed the cells that had been transfected to be identified. […] The currents were recorded at 20-22°C using an Axopatch 200B amplifier, filtered at half the sampling frequency and stored in a computer for further analysis. […] The capacitive current artefacts generated after the application of pulses from 0 mV to +10 mV were recorded at 50 kHz (filtered at 10 kHz) to calculate the capacitance of the cell, the access resistance and the input impedance. […] INa was recorded by applying 50 ms pulses from a holding potential of -120 mV to potentials between -80 and +50 mV in 5 mV increments. […]

human Nav1.5 channels = target: T1, human Nav1.5 channels (Homo sapiens, UniProt Q14524); assay: INa density, whole-cell patch-clamp in CHO cells co-transfected with Nav1.5 and the cDNA encoding the peptide; assay type: cell-based; conditions: vs. cells transfected only with Nav1.5 channels, various membrane potentials, P<0.05
T1 construct: expressed in transfected cells; host or cells: CHO (Chinese hamster ovary) cells
Protocol: as §1

HEK293 cells = assay: Access to the cell interior of fluorescent peptides, fluorescence microscopy; assay type: cell-based; conditions: 24 hours, 10 µM, green fluorescent signal
[2] = Conformational study by circular dichroism (helicity); assay type: physicochemical; conditions: for Helicity in 60:40 H2O/TFE (%) / Helicity in H2O (%): circular dichroism, 10 µM, 5°C
Protocol: Circular dichroism spectra were recorded in aqueous solution and in a 60:40 H2O:trifluoroethanol (TFE) mixture. The concentration used was 10 µM and the temperature (T) was adjusted to 5°C. Measurements were made between 190 and 250 nm using a 0.1 cm optical pitch cell. The experiments were carried out at a scanning rate of 50 nm/min, a response time of 2 s and a bandwidth of 1 nm. The spectra obtained are the average of 4 sweeps to which the baseline was corrected.
To calculate helicity, the equation [θ]222/[θ]max. was used, where [θ]max = (-44000+250T) ([…]). As a finite length correction value (k), the value of k = 4 was taken, while n refers to the number of residues in the peptides. Table 6. Helicity observed by circular dichroism for the peptides studied.

[3] = Stability in human blood serum, UPLC-MS; assay type: in vitro ADME; conditions: 37°C
Protocol: A 1 mM dilution of the peptide in water was prepared and 0.5 ml was taken and mixed with 0.5 ml of human serum. The resulting solution was incubated for 72 hours at 37°C. After 24 hours and 72 hours, 120 µl aliquots were taken and treated with 20 µl trifluoroacetic acid to precipitate the proteins. After 30 minutes at 4°C, the mixture was centrifuged at 13000 g and 4°C. The supernatant, once filtered, was analysed by UPLC-MS using a C18 Bridge column (3.0 mm x 50 mm, 2.5 µm) and a gradient of 15 and 50% CH3CN (0.1% formic acid) in H2O (0.1% formic acid) over 5 minutes.

T1 sequence (Q14524 1-2015 isoform Q14524-2): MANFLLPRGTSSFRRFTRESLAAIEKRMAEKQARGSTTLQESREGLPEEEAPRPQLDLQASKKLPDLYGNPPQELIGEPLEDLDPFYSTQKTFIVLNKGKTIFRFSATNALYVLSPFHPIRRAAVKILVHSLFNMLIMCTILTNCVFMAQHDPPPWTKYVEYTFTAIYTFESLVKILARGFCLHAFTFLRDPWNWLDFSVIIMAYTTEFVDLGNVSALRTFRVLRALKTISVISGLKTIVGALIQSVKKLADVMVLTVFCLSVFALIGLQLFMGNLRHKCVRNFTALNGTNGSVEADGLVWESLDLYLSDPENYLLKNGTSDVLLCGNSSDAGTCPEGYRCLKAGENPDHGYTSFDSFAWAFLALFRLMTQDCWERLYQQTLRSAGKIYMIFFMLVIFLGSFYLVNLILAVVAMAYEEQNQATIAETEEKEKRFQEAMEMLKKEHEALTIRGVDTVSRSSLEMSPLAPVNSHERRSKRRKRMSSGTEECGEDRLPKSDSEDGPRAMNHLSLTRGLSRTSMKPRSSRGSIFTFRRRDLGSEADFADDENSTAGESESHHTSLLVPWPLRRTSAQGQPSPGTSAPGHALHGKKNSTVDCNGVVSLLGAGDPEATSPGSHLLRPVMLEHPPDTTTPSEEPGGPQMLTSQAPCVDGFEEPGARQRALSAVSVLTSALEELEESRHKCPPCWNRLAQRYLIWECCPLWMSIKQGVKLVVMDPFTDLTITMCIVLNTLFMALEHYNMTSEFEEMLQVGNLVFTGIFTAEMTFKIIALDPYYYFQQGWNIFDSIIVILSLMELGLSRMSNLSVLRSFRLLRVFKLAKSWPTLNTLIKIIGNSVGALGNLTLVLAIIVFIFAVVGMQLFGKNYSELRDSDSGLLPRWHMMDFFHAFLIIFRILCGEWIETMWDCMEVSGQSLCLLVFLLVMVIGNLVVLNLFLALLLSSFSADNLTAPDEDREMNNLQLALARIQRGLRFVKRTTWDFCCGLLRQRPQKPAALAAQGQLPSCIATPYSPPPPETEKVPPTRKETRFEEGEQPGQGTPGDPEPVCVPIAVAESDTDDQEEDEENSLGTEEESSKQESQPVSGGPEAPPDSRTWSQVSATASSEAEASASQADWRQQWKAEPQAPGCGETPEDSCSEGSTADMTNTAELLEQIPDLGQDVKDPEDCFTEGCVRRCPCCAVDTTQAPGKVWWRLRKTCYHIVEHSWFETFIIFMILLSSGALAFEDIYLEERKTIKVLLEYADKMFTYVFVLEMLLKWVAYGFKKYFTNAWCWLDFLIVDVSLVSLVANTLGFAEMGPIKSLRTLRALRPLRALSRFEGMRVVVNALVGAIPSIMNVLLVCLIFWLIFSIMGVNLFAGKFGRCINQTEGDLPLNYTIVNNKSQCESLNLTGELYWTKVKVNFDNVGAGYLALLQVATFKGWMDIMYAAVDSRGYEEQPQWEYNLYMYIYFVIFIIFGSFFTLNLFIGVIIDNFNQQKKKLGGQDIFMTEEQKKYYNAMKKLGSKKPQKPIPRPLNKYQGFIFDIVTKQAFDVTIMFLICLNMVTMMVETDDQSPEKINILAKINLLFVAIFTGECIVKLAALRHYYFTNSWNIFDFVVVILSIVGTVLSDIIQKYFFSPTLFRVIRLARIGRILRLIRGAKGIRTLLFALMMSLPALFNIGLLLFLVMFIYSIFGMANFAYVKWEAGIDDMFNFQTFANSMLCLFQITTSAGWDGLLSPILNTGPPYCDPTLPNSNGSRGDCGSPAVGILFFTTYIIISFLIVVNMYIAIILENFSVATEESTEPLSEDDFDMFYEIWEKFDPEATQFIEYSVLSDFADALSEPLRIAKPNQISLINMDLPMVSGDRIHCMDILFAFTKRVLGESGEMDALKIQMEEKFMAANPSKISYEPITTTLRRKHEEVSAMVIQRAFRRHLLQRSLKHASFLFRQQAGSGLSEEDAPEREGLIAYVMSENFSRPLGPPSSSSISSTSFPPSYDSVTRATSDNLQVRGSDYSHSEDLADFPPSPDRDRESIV

Pal-RFTRESLAAIEK-NH2 (Palmitoyl-RFTRESLAAIEK-NH2; SMILES CCCCCCCCCCCCCCCC(=O)N[C@@H](CCCNC(=N)N)C(=O)N[C@@H](Cc1ccccc1)C(=O)N[C@H](C(=O)N[C@@H](CCCNC(=N)N)C(=O)N[C@@H](CCC(=O)O)C(=O)N[C@@H](CO)C(=O)N[C@@H](CC(C)C)C(=O)N[C@@H](C)C(=O)N[C@@H](C)C(=O)N[C@H](C(=O)N[C@@H](CCC(=O)O)C(=O)N[C@@H](CCCCN)C(N)=O)[C@@H](C)CC)[C@@H](C)O) [Pal-SEQ ID NO: 23-NH2]
INa [1]: statistically significantly increase INa

EKRMAEKQARGSTTL (listed as Homo sapiens) [SEQ ID NO: 4, 15-amino acid peptide, amino acids 25-39 of human Nav1.5]
density of INa (human Nav1.5 channels): did not

CCCCCCCCCCCCCCCC(=O)N[C@@H](CCCNC(=N)N)C(=O)N[C@@H](Cc1ccccc1)C(=O)N[C@H](C(=O)N[C@@H](CCCNC(=N)N)C(=O)N[C@@H](CCC(=O)O)C(=O)N[C@@H](CO)C(=O)N[C@@H](CC(C)C)C(=O)N[C@@H](C)C(=O)N[C@@H](C)C(=O)N[C@H](C(=O)N[C@@H](CCC(=O)O)C(=O)N[C@@H](CCCCNC(=S)Nc1ccc2c(c1)C(=O)OC21c2ccc(O)cc2Oc2cc(O)ccc21)C(N)=O)[C@@H](C)CC)[C@@H](C)O [Pal-SEQ ID NO: 23(SF)-NH2, Pal-RFTRESLAAIEK(SF)-NH2] (Palmitoyl-RFTRESLAAIEK(FITC)-NH2)
ability to penetrate into the cell interior (HEK293 cells): good ability to penetrate

CC[C@H](C)[C@H](NC(=O)[C@H](C)NC(=O)[C@H](C)NC(=O)[C@H](CC(C)C)NC(=O)[C@H](CO)NC(=O)[C@H](CCC(=O)O)NC(=O)[C@H](CCCNC(=N)N)NC(=O)[C@@H](NC(=O)[C@H](Cc1ccccc1)NC(=O)[C@H](CCCNC(=N)N)NC(C)=O)[C@@H](C)O)C(=O)N[C@@H](CCC(=O)O)C(=O)N[C@@H](CCCCNC(=S)Nc1ccc2c(c1)C(=O)OC21c2ccc(O)cc2Oc2cc(O)ccc21)C(N)=O [Ac-SEQ ID NO: 23(SF)-NH2, Ac-RFTRESLAAlEK(SF)-NH2] (Ac-RFTRESLAAIEK(FITC)-NH2)
ability to penetrate into the cell interior (HEK293 cells): not able to penetrate

Pal-FTRESLAAIEK-NH2 (Palmitoyl-FTRESLAAIEK-NH2; SMILES CCCCCCCCCCCCCCCC(=O)N[C@@H](Cc1ccccc1)C(=O)N[C@H](C(=O)N[C@@H](CCCNC(=N)N)C(=O)N[C@@H](CCC(=O)O)C(=O)N[C@@H](CO)C(=O)N[C@@H](CC(C)C)C(=O)N[C@@H](C)C(=O)N[C@@H](C)C(=O)N[C@H](C(=O)N[C@@H](CCC(=O)O)C(=O)N[C@@H](CCCCN)C(N)=O)[C@@H](C)CC)[C@@H](C)O) [Pal-SEQ ID NO: 25-NH2]
INa [1]: statistically significantly increase INa

Ac-RFTRESLAAIE-NH2 [Ac-SEQ ID NO: 3-NH2, Ac-RFTRESLAAIE-NH2]
Helicity in 60:40 H2O/TFE (%) [2]: 32.3%
Helicity in H2O (%) [2]: 2.7%

Ac-FTRESLAAIEKR-NH2 [Ac-SEQ ID NO: 26-NH2, Ac-FTRESLAAIEKR-NH2]
Helicity in 60:40 H2O/TFE (%) [2]: 35.5%
Helicity in H2O (%) [2]: 10.8%
remaining at 24 h, 0.5 mM ([3]; human blood serum diluted 50:50 with water, human blood serum/H2O (50:50), after 24 hours of incubation, read-out: peptide remained unchanged): 82%
half-life ([3]; human blood serum, estimated taking into account serum concentration of 50%): 27 h

Ac-FTRESLAAIEK-NH2 [Ac-SEQ ID NO: 25-NH2, Ac-FTRESLAAIEK-NH2]
Helicity in 60:40 H2O/TFE (%) [2]: 46.2%
Helicity in H2O (%) [2]: 10.7%
increase in helicity in H2O ([2]; compared with Ac-SEQ ID NO: 3-NH2): 8%
